Assay results taken from ChEMBL document CHEMBL6127035, “Novel pyridazinone derivatives bind to KSRP: Synthesis, anti-tumor biological evaluations and modelling insights” (Eur J Med Chem, 2024).
pIC50, pKd: −log10 of the molar value.

What was measured:
MCF7 = test: Antiproliferative activity against human MCF7 cells assessed as reduction in cell viability incubated for 2 days by MTT assay; assay type: functional, cell-based; details: MCF7, 48 h
MDA-MB-231 = test: Antiproliferative activity against human MDA-MB-231 cells assessed as reduction in cell viability incubated for 2 days by MTT assay; assay type: functional, cell-based; details: MDA-MB-231, 48 h
4T1 = test: Antiproliferative activity against mouse 4T1 cells assessed as reduction in cell viability incubated for 2 days by MTT assay; assay type: functional, cell-based; details: 4T1, 48 h
NCI-H460 = test: Antiproliferative activity against human NCI-H460 cells assessed as reduction in cell viability incubated for 2 days by MTT assay; assay type: functional, cell-based; details: NCI-H460, 48 h
A549 = test: Antiproliferative activity against human A549 cells assessed as reduction in cell viability incubated for 2 days by MTT assay; assay type: functional, cell-based; details: A549, 48 h
HCT-116 = test: Antiproliferative activity against human HCT-116 cells assessed as reduction in cell viability incubated for 2 days by MTT assay; assay type: functional, cell-based; details: HCT-116, 48 h
MIA PaCa-2 = test: Antiproliferative activity against human MIA PaCa-2 cells assessed as reduction in cell viability incubated for 2 days by MTT assay; assay type: functional, cell-based; details: MIA PaCa-2, 48 h
[1] = Cytotoxicity against human L02 cells assessed as reduction in cell viability incubated for 2 days by MTT assay; assay type: toxicity, cell-based
KB = test: Antiproliferative activity against human KB cells assessed as reduction in cell viability incubated for 2 days by MTT assay; assay type: functional, cell-based; details: 48 h
U-87 MG = test: Antiproliferative activity against human U-87 MG cells assessed as reduction in cell viability incubated for 2 days by MTT assay; assay type: functional, cell-based, U-87MG ATCC; details: 48 h
[2] = biological target: T1, Far upstream element-binding protein 2 (Homo sapiens) (UniProt Q92945); test: Binding affinity to recombinant full-length KSRP (unknown origin) by SPR analysis
T1 sequence (whole entry): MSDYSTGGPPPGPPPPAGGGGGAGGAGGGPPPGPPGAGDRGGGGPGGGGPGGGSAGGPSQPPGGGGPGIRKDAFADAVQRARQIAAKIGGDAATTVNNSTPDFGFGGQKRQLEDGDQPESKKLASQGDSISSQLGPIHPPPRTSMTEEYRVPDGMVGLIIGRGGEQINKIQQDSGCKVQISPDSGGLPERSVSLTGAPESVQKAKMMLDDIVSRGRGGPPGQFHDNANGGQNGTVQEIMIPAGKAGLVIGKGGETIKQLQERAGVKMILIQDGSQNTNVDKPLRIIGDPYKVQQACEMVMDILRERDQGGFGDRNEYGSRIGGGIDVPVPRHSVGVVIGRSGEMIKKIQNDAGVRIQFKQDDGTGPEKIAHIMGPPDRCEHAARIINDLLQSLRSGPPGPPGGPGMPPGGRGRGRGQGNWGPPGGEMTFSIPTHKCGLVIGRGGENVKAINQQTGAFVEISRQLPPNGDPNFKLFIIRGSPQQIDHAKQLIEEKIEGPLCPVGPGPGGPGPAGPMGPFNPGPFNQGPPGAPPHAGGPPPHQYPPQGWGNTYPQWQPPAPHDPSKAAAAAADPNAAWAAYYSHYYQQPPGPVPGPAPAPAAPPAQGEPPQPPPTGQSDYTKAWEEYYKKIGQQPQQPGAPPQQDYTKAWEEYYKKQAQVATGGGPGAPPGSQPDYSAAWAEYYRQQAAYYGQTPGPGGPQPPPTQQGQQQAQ

[3] = biological target: T2, Far upstream element-binding protein 2 (Homo sapiens, UniProt Q92945); test: Binding affinity to recombinant full-length KSRP (unknown origin) assessed as dissociation constant by SPR analysis
T2 sequence (Q92945 whole entry): T1 sequence (whole entry)

pIC50 (MCF7) | pIC50 (MDA-MB-231) | pIC50 (4T1) | pIC50 (NCI-H460) | pIC50 (A549) | pIC50 (HCT-116) | pIC50 (MIA PaCa-2) | pIC50 (KB) | pIC50 (U-87 MG) | Activity [2] | pKd [3] | SMILES | IC50 at 2 days [1] [nM]
< 5.00 | < 5.00 | 5.74 |  |  |  |  |  |  |  |  | CCN(CCOC)S(=O)(=O)c1ccc(-n2ncc(Cl)c(Cl)c2=O)cc1 | 
5.30 | 5.22 | 5.76 | 5.98 | 5.90 | 6.33 | 6.41 | 6.33 | 6.24 |  |  | COCCNS(=O)(=O)c1ccc(-n2ncc(Cl)c(Cl)c2=O)cc1 | 4070
5.09 | 4.79 | 5.39 |  |  |  |  |  |  | Dose-Dependent Effect | 4.42 | COCC(C)NS(=O)(=O)c1ccc(-n2ncc(Cl)c(Cl)c2=O)cc1 (configuration not stated) | 

Further lines, the compound ahead of its results:

SMILES | pIC50 (MCF7) | pIC50 (MDA-MB-231) | pIC50 (4T1) | pIC50 (NCI-H460) | pIC50 (A549) | pIC50 (HCT-116) | pIC50 (MIA PaCa-2) | pIC50 (KB) | pIC50 (U-87 MG) | Activity [2] | pKd [3] | IC50 at 2 days [1] [nM]
CC(C)C(CO)NS(=O)(=O)c1ccc(-n2ncc(Cl)c(Cl)c2=O)cc1 (configuration not stated) | 5.29 | 4.84 | 5.84 | 6.13 | 5.90 | 6.44 | 6.38 | 6.46 | 6.44 |  |  | 3640
CCN(CCCN1CCCC1)S(=O)(=O)c1ccc(-n2ncc(OC)c(Cl)c2=O)cc1 | < 4.70 | < 4.70 | < 4.70 |  |  |  |  |  |  |  |  | 
CN(CCN(C)S(=O)(=O)c1ccc(-n2ncc(Cl)c(Cl)c2=O)cc1)S(=O)(=O)c1ccc(-n2ncc(Cl)c(Cl)c2=O)cc1 | < 4.70 | < 4.30 | < 5.00 |  |  |  |  |  |  |  |  | 
NCCCCNS(=O)(=O)c1ccc(-n2ncc(Cl)c(Cl)c2=O)cc1 | < 4.70 | < 4.30 | < 5.00 |  |  |  |  |  |  |  |  | 
O=c1c(Cl)c(Cl)cnn1-c1ccc(S(=O)(=O)NCCCN2CCCC2)cc1 | 5.35 | 5.04 | 5.84 | 5.71 | 5.74 | 6.00 | 6.06 | 6.24 | 6.15 |  |  | 8150
